Results: US20020123471A1, “LENTIVIRUS BASED VECTOR AND VECTOR SYSTEM” (priority 1997, published 2002)

Tested on: SIV[SIV] or SIV[MLV] vector particles
Assay: Inhibition of retroviral transfer of V1-luc into CEMx174 cells by reverse transcriptase inhibitor
Type: cell-based
Conditions: Simian immunodeficiency virus, CEMx174, read-out: transfer of V1-luc inhibited

SMILES: Cc1cn([C@H]2C[C@H](N=[N+]=[N-])[C@@H](CO)O2)c(=O)[nH]c1=O [Zidovudine, 3′-azido-2′,3′-dideoxythymidine]
- inhibition at 10 µM: 90%
